Reference: patent US11476000B2, “Methods and systems using mathematical analysis and machine learning to diagnose disease” (Analytics For Life Inc., priority 2015, dated 2022)

What was measured:
[1] = estimated; cited from earlier work
[2] = test system: test rats exposed to DMO in-utero; experiment: Cardiovascular adaptation to pregnancy in rats exposed to DMO in utero; type: in vivo, rat; conditions: in-utero exposed rats with resolved CHD; altered CO, SV, strain, elevated mean arterial pressure
Experimental: (§1) To explore the potential deleterious long-term consequences of resolved CHDs, the exemplified rat model was developed that recapitulates many of the clinical presentations of CHD. To generate such a model, pregnant rats were treated with a chemical teratogen. […] Without wishing to be bound to particular theory, it is thought that DMO teratogenicity is mediated by oxidative stress which might be the result of the result of hypoxia reperfusion injury caused by bradycardias induced by disruption of calcium and potassium ion channels in embryonic myocytes. […] The administration of four 300 mg/kg doses every twelve hours beginning on the morning of gestation day (GD) 9 produces approximately a 50% incidence of CHD if fetuses are examined on GD 21, one day prior to natural parturition (see, e.g., Weston et al., “Co-variation in frequency and severity of cardiovascular and skeletal defects in Sprague-Dawley rats after maternal administration of dimethadione, the N-demethylated metabolite of trimethadione. Birth defects research Part B,” Developmental and reproductive toxicology, Vol. 92, Pages 206-15 (2011)). […] For example, in infants, approximately 80% of VSD resolves by one year of age, and in test rats after DMO exposure, about 80% of the VSD resolve spontaneously by weaning. […]

[3] = test system: outbred pregnant Sprague-Dawley rats; experiment: Teratogenicity of maternal DMO administration in pregnant rats (CHD in progeny); type: in vivo; conditions: rat pups after DMO exposure, natural delivery, echocardiography
Experimental: as §1

[4] = test system: outbred pregnant Sprague-Dawley rats; conditions: four 300 mg/kg doses every twelve hours beginning morning of GD 9; fetuses examined on GD 21; cited from earlier work

Structure (SMILES) | in utero exposures resulting in embryo/fetal loss, or malformations including a high incidence of CHD [1] [%] | adaptation of the cardiovascular system to pregnancy [2] | VSD that resolve spontaneously by weaning [3] | incidence of CHD [4] [%]
CN1C(=O)OC(C)(C)C1=O [trimethadione] | 80 |  |  | 
CC1(C)OC(=O)NC1=O [DMO, dimethadione] |  | adapted poorly to the burden of pregnancy | approximately 80% | ~50
